Data: ChEMBL document CHEMBL1201862, “PubChem BioAssay data set” (2004)
Activity calls are given as the source filed them.

Columns and labels:
[1] = biological target: T1, E3 ubiquitin-protein ligase XIAP (Homo sapiens, UniProt P98170); assay: Counter Screen using XIAP-Bir3 for Chemical Antagonists of Bir1/2 domains of IAP-family anti-apoptotic proteins. [Related pubchem assays (depositor defined):AID1018, AID1449, AID1514, AID1638, AID1749, AID1750, AID488957, AID488963]
[2] = biological target: T1, E3 ubiquitin-protein ligase XIAP; assay: XIAP antagonists, biochemical, IAP family, fluorescence polarization (AID 1018); assay type: functional
[3] = biological target: T2, Intestinal-type alkaline phosphatase (Homo sapiens, UniProt P09923); assay: Dose Response confirmation of uHTS hits from a small molecule inhibitors of human intestinal alkaline phosphatase via a luminescent assay. [Related pubchem assays (depositor defined):AID2544, AID2574]; assay type: functional
T2 sequence (P09923 whole entry): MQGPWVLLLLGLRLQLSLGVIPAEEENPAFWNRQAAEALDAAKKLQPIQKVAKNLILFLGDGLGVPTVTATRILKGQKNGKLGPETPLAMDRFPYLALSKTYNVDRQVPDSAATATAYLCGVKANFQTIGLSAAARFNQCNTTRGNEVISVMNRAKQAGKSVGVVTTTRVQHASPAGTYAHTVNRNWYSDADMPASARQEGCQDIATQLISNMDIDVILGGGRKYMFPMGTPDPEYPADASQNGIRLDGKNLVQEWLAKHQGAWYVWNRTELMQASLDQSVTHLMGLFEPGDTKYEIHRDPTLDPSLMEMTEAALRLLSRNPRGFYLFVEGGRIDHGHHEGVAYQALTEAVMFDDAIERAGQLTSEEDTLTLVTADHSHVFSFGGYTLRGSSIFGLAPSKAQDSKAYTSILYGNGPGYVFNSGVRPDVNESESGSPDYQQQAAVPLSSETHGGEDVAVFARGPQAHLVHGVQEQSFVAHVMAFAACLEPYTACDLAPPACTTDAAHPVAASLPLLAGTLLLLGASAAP

[4] = biological target: T2, Intestinal-type alkaline phosphatase; assay: human intestinal alkaline phosphatase activators, dose response, biochemical, luminescence, uHTS hits (AID 463120); assay type: functional
Cannabinoid receptor 2 [5] = biological target: T3, Cannabinoid receptor 2 (Homo sapiens, UniProt P34972); assay: SAR analysis of antagonists of the Cannabinoid Receptor 2 using an Image-Based Assay - Set 2. [Related pubchem assays (depositor defined):AID1961, AID1965]; assay type: functional
T3 sequence (P34972 whole entry): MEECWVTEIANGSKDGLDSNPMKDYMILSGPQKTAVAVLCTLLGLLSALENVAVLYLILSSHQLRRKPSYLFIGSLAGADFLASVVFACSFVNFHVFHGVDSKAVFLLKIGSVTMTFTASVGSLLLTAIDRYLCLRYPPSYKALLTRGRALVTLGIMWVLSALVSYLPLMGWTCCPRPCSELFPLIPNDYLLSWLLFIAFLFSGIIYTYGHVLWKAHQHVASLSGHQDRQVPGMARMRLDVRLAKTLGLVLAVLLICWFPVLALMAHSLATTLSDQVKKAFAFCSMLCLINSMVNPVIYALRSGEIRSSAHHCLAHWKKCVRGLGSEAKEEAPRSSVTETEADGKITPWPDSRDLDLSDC

Cannabinoid receptor 2 [6] = biological target: T3, Cannabinoid receptor 2; assay: SAR analysis of agonists of the Cannabinoid Receptor 2 using an Image-Based Assay - Set 2. [Related pubchem assays (depositor defined):AID1961, AID1965]; assay type: functional
[7] = biological target: T4, G-protein coupled receptor 55 (Homo sapiens, UniProt Q9Y2T6); assay: SAR analysis of selective Agonists of GPR55 using an Image-Based Assay. [Related pubchem assays (depositor defined):AID1961, AID1965]; assay type: functional
T4 sequence (Q9Y2T6 whole entry): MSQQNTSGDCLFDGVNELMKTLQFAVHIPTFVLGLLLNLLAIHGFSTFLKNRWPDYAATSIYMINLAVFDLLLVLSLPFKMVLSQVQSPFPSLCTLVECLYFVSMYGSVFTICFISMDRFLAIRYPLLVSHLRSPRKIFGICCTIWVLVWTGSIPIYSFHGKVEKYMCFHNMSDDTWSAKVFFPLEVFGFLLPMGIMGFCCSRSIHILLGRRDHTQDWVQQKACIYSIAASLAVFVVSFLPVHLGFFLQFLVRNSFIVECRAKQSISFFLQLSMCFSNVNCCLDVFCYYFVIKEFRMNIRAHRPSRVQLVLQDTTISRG

Cannabinoid receptor 1 [8] = biological target: T5, Cannabinoid receptor 1 (Homo sapiens, UniProt P21554); assay: SAR analysis of antagonists of the Cannabinoid Receptor 1 using an Image-Based Assay. [Related pubchem assays (depositor defined):AID1961, AID1965]; assay type: functional
T5 sequence (P21554 whole entry): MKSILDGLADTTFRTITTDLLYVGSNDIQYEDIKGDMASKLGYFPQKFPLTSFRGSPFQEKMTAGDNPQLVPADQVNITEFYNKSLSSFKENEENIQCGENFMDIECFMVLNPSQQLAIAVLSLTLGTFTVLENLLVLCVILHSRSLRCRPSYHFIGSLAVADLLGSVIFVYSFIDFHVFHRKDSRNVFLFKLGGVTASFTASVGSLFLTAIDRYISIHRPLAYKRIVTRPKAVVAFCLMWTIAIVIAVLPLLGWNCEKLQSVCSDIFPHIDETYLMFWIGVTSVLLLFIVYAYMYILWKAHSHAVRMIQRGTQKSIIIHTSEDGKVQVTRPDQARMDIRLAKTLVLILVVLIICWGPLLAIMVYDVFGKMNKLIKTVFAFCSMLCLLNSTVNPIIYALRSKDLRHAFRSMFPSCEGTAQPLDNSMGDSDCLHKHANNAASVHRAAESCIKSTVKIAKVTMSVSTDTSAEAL

[9] = biological target: Kappa-type opioid receptor (Homo sapiens, UniProt P41145); assay: SAR analysis of small molecule agonists of the kappa opioid receptor via a luminescent beta-arrestin assay - Set 3. [Related pubchem assays (depositor defined):AID1777, AID1785, AID1786, AID1966, AID2133, AID2136, AID2284, AID2500]; assay type: functional
Chain of Kappa-type opioid receptor (P41145 whole entry): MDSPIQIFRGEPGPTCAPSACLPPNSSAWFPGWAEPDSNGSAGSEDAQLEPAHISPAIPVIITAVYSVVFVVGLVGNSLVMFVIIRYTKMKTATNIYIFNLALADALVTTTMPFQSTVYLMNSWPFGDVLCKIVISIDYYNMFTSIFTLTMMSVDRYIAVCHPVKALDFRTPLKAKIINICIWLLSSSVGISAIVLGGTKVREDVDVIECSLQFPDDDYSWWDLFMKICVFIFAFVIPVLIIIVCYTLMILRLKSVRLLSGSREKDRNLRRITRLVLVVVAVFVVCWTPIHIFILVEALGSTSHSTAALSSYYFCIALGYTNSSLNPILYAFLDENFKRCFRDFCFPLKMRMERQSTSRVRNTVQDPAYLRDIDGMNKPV

[10] = biological target: T4, G-protein coupled receptor 55; assay: SAR analysis of selective Agonists of GPR55 using an Image-Based Assay - Set 2. [Related pubchem assays (depositor defined):AID1961, AID1965]; assay type: functional
[11] = biological target: T6, G-protein coupled receptor 35 (Homo sapiens, UniProt Q9HC97); assay: SAR analysis of Agonists of the GPR35 Receptor using an Image-Based Assay - Set 3. [Related pubchem assays (depositor defined):AID1961, AID1965]; assay type: functional
T6 sequence (Q9HC97 whole entry): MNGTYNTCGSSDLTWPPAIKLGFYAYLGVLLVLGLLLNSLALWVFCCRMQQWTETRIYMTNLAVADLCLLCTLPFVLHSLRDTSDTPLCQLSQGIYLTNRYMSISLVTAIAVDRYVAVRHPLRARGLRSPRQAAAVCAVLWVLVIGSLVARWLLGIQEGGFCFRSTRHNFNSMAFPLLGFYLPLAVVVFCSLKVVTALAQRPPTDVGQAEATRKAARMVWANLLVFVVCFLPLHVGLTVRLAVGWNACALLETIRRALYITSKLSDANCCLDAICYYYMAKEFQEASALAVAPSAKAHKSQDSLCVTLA

Cannabinoid receptor 1 [12] = biological target: T5, Cannabinoid receptor 1; assay: SAR analysis of antagonists of the Cannabinoid Receptor 1 using an Image-Based Assay - Set 3. [Related pubchem assays (depositor defined):AID1961, AID1965]; assay type: functional
Cannabinoid receptor 1 [13] = biological target: T5, Cannabinoid receptor 1; assay: SAR analysis of agonists of the Cannabinoid Receptor 1 using an Image-Based Assay - Set 3. [Related pubchem assays (depositor defined):AID1961, AID1965]; assay type: functional
[14] = biological target: T6, G-protein coupled receptor 35; assay: SAR analysis of Antagonists of the GPR35 Receptor using an Image-Based Assay - Set 4. [Related pubchem assays (depositor defined):[…]]; assay type: functional
[15] = biological target: Signal transducer and activator of transcription 3 (Homo sapiens, UniProt P40763); assay: STAT3 inhibitors, late-stage profile, late-stage follow-up, cell-based, STAT1 panel, qPCR, cytotoxicity, panel member STAT3 Inhibition (AID 2078)
Chain of Signal transducer and activator of transcription 3 (P40763 whole entry): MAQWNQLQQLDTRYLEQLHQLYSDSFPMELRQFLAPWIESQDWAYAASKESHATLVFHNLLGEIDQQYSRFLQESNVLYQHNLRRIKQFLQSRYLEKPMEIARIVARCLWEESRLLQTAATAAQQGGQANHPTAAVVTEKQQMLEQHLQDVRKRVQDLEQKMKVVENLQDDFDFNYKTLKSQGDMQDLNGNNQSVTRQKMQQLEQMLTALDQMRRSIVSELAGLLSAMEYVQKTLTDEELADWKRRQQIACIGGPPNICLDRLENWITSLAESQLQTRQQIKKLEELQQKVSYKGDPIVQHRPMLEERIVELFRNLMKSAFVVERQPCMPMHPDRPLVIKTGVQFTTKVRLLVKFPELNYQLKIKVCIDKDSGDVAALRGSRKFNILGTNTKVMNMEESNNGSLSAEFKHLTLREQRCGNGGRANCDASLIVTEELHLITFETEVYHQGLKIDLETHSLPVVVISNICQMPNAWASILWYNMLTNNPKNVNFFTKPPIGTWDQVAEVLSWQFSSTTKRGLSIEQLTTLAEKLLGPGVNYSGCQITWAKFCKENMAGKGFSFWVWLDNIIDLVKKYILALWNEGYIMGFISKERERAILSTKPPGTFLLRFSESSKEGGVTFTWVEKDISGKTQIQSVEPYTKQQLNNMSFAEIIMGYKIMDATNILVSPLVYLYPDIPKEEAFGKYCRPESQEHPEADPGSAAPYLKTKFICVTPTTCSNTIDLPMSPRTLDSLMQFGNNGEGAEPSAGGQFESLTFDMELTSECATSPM

[16] = biological target: Signal transducer and activator of transcription 1-alpha/beta (Homo sapiens, UniProt P42224); assay: STAT3 inhibitors, late-stage profile, late-stage follow-up, cell-based, STAT1 panel, qPCR, cytotoxicity, panel member STAT1 Inhibition (AID 2078)
Chain of Signal transducer and activator of transcription 1-alpha/beta (P42224 whole entry): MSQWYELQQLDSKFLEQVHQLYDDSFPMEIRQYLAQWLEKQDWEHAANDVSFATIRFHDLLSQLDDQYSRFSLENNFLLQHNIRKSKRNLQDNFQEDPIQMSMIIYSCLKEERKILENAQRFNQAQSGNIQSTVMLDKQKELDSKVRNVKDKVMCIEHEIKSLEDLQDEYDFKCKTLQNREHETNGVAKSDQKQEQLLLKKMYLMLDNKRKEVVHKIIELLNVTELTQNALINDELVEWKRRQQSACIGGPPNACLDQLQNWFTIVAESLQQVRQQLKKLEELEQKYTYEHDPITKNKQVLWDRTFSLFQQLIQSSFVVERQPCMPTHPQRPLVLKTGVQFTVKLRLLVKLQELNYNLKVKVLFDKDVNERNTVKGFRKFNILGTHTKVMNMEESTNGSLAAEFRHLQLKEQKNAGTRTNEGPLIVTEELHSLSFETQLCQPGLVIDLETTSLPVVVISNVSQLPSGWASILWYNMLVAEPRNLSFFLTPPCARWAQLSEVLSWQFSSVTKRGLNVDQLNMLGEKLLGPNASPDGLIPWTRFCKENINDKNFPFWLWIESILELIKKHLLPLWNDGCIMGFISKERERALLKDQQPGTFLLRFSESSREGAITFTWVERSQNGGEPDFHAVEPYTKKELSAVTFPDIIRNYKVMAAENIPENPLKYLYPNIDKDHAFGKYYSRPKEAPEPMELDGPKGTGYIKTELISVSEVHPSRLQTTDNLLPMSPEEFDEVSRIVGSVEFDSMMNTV

T1 sequence (P98170 whole entry): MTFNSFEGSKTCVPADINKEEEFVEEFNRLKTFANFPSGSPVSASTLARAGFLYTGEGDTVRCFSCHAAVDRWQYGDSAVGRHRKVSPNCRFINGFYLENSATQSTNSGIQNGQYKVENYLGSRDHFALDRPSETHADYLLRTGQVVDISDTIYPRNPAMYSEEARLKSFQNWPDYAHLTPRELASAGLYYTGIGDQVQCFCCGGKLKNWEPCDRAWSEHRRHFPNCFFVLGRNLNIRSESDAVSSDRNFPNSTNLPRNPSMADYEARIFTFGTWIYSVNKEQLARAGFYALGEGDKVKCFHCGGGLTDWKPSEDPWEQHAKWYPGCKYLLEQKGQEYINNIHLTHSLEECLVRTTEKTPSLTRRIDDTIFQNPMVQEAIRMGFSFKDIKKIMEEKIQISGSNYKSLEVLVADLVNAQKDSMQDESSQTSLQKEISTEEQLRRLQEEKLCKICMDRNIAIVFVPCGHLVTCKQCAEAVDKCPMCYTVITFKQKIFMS

In the case of CCN(Cc1ccccc1)C(=O)/C=C/c1ccccc1[N+](=O)[O-], the IC50 [1] is reported as > 100 µM (inactive) and the IC50 [2] is reported as > 100 µM (not active).

In the case of CC(=O)c1ccc(NC(=O)C2CCCN2S(=O)(=O)c2cccs2)cc1 (stereo not drawn), the IC50 [3] is reported as > 100 µM (inactive) and the EC50 [4] is reported as > 100 µM (inactive).

With COc1ccc(-c2csc(NC(=O)CSc3nnc4c(C)cc5ccccc5n34)n2)cc1 the IC50 (Cannabinoid receptor 2 [5]) was > 32 µM (inactive), the EC50 (Cannabinoid receptor 2 [6]) was > 32 µM (inactive) and the EC50 [7] was 0.658 µM (active). The IC50 (Cannabinoid receptor 1 [8]) was > 32 µM (inactive).

For Brc1ccc(CSc2nnc(-c3ccc(Br)cc3)n2Cc2ccco2)cc1, the EC50 [9] was 11.3 µM (inactive).

For Cc1cc2cc3c(cc2n2c(SCC(=O)Nc4nc(-c5ccccc5)cs4)nnc12)OCO3, the IC50 (Cannabinoid receptor 2 [5]) was > 32 µM (inactive), the EC50 [10] was 0.0648 µM (active) and the EC50 (Cannabinoid receptor 2 [6]) was > 32 µM (inactive). The EC50 [11] was > 32 µM (inactive), the IC50 (Cannabinoid receptor 1 [12]) was 15.8 µM (inactive) and the EC50 (Cannabinoid receptor 1 [13]) was > 32 µM (inactive). The IC50 [14] was > 32 µM (inactive).

In the case of c1ccc(CC2CCN(c3ncnc4scc(-c5ccccc5)c34)CC2)cc1, the IC50 [15] is reported as > 55.7 µM (inactive) and the IC50 [16] is reported as > 55.7 µM (inactive).
